We go through four compounds from BindingDB's records for doi:10.1016/j.bmc.2015.07.027 (Ocean University of China, 2015).

This data set is described as follows: Modulation of P-gp (unknown origin) transfected in human MDA435/LCC6MDR cells assessed as paclitaxel IC50 for cell growth inhibition at 1 uM after 5 days by MTS assay. In general terms: Formazan colour is commonly taken as a measure of viable cells.

Each structure is given as a SMILES string.

Broadly, the IC50 is the concentration that gives 50% inhibition. Take `COc1ccc(C2=C(c3ccc(OC)c(OC)c3)C(=O)N(C(=O)N3CCN(CC(=O)c4ccc(S(C)(=O)=O)cc4)CC3)C2=O)cc1OC`: the IC50 is 136 nM.

For the compound `COc1ccc(C2=C(c3ccc(OC)c(OC)c3)C(=O)N(C(=O)Nc3ccc4c(c3)C(=O)OC4)C2=O)cc1OC`, the IC50 was 126 nM. In the case of `COc1ccc(C2=C(c3ccc(OC)c(OC)c3)C(=O)N(C(=O)N3CCN(CC(=O)c4ccc(OCc5ccccc5)c(OC)c4)CC3)C2=O)cc1OC` it was 26 nM. `CCCCC1OC(=O)c2cc(NC(=O)N3C(=O)C(c4ccc(OC)c(OC)c4)=C(c4ccc(OC)c(OC)c4)C3=O)ccc21` (centres undefined): the IC50 is 58 nM.
